From ChEMBL document CHEMBL3045262, “Synthesis and Insecticidal Activity of Novel 1-Benzoyl-3-phenylurea Derivatives with Polyfluoroethylsulfenyl, -sulfonyl, and-sulfinyl Substituents” (1992)

What was measured:
Format in all cases: functional
Adoxophyes orana = assay: Larvicidal activity against second-instar larvae of Adoxophyes orana infested soybean seedling assessed as mortality at 5 ppm measured after 7 days; conditions: 168 h
Plutella xylostella = assay: Larvicidal activity against second-instar larvae of Plutella xylostella (diamondback moth) infested raddish seedling assessed as mortality at 3.3 ppm sprayed 2 hr prior to infestation measured after 4 days
Spodoptera litura [1] = assay: Larvicidal activity against third-instar larvae of Spodoptera litura infested in soybean seedling assessed as mortality at 2 ppm sprayed 6 days prior to infestation measured after 5 days
Spodoptera litura [2] = assay: Larvicidal activity against third-instar larvae of Spodoptera litura infested in soybean seedling assessed as mortality at 2 ppm sprayed 1 day prior to infestation measured after 5 days

Row | SMILES | mortality at 5 ppm (Adoxophyes orana) | mortality at 3.3 ppm (Plutella xylostella) | mortality at 2 ppm (Spodoptera litura [1]) | mortality at 2 ppm (Spodoptera litura [2])
1 | Cc1cc(SC(F)(F)C(F)F)c(C)cc1NC(=O)NC(=O)c1c(F)cccc1F | 90% | 85% | 100% | 100%
2 | O=C(NC(=O)c1c(F)cccc1F)Nc1ccc(SC(F)(F)C(F)Cl)cc1Br (stereo not drawn) | 100% | 95% | 100% | 100%
3 | O=C(NC(=O)c1c(F)cccc1F)Nc1cc(Cl)c(S(=O)(=O)C(F)(F)C(F)Cl)cc1Cl (stereo not drawn) | 100% | 100% | 95% | 100%
4 | O=C(NC(=O)c1c(F)cccc1F)Nc1ccc(S(=O)(=O)C(F)(F)C(F)F)cc1F | 100% | 100% | 100% | 100%
5 | O=C(NC(=O)c1c(F)cccc1F)Nc1ccc([S+]([O-])C(F)(F)C(F)F)cc1 (stereo not drawn) |  | 100% | 15% | 5%
6 | O=C(NC(=O)c1c(F)cccc1F)Nc1cc(Cl)c(SC(F)(F)C(F)Cl)cc1Cl (stereo not drawn) | 100% | 100% | 100% | 100%
7 | O=C(NC(=O)c1c(F)cccc1F)Nc1ccc(SC(F)(F)C(F)Cl)cc1F (stereo not drawn) | 100% | 100% | 100% | 100%
8 | Cc1cc([S+]([O-])C(F)(F)C(F)F)ccc1NC(=O)NC(=O)c1c(F)cccc1F (stereo not drawn) | 100% | 100% | 100% | 100%
9 | O=C(NC(=O)c1c(F)cccc1F)Nc1ccc(S(=O)(=O)C(F)(F)C(F)Cl)cc1Cl (stereo not drawn) | 100% | 95% | 100% | 100%
10 | Cc1cc(SC(F)(F)C(F)F)ccc1NC(=O)NC(=O)c1c(F)cccc1F | 100% | 100% | 100% | 95%
11 | Cc1c(NC(=O)NC(=O)c2c(F)cccc2F)ccc([S+]([O-])C(F)(F)C(F)F)c1C (stereo not drawn) | 90% | 100% | 100% | 100%
12 | Cc1cc([S+]([O-])C(F)(F)C(F)Cl)c(C)cc1NC(=O)NC(=O)c1c(F)cccc1F (stereo not drawn) | 100% | 100% | 100% | 100%
13 | O=C(NC(=O)c1c(F)cccc1F)Nc1ccc(S(=O)(=O)C(F)(F)C(F)F)c(Cl)c1 | 100% | 80% | 35% | 60%
14 | Cc1c(NC(=O)NC(=O)c2c(F)cccc2F)ccc([S+]([O-])C(F)(F)C(F)Cl)c1C (stereo not drawn) | 100% | 100% | 100% | 100%
15 | O=C(NC(=O)c1c(F)cccc1F)Nc1ccc(SC(F)(F)C(F)F)cc1F | 80% | 100% | 100% | 100%
16 | O=C(NC(=O)c1c(F)cccc1F)Nc1ccc(S(=O)(=O)C(F)(F)C(F)F)cc1Br | 40% | 65% | 85% | 100%
17 | Cc1cc(S(=O)(=O)C(F)(F)C(F)Cl)ccc1NC(=O)NC(=O)c1c(F)cccc1F (stereo not drawn) | 95% | 100% | 100% | 100%
18 | Cc1cc(S(=O)(=O)C(F)(F)C(F)Cl)c(C)cc1NC(=O)NC(=O)c1c(F)cccc1F (stereo not drawn) | 100% | 100% | 100% | 100%
19 | O=C(NC(=O)c1c(F)cccc1F)Nc1cc(Cl)c(SC(F)(F)C(F)F)cc1Cl | 100% | 100% | 85% | 100%
20 | O=C(NC(=O)c1c(F)cccc1F)Nc1ccc([S+]([O-])C(F)(F)C(F)F)cc1F (stereo not drawn) | 100% | 100% | 95% | 100%
21 | O=C(NC(=O)c1c(F)cccc1F)Nc1ccc(SC(F)(F)C(F)Cl)cc1Cl (stereo not drawn) | 100% | 100% | 100% | 100%
22 | Cc1c(NC(=O)NC(=O)c2c(F)cccc2F)ccc(S(=O)(=O)C(F)(F)C(F)F)c1C | 100% | 100% | 100% | 100%
23 | Cc1cc(SC(F)(F)C(F)Cl)ccc1NC(=O)NC(=O)c1c(F)cccc1F (stereo not drawn) | 95% | 100% | 100% | 100%
24 | Cc1cc(S(=O)(=O)C(F)(F)C(F)F)c(C)cc1NC(=O)NC(=O)c1c(F)cccc1F | 95% | 100% | 100% | 100%

Row | SMILES | mortality at 5 ppm (Adoxophyes orana) | mortality at 3.3 ppm (Plutella xylostella) | mortality at 2 ppm (Spodoptera litura [1]) | mortality at 2 ppm (Spodoptera litura [2])
25 | O=C(NC(=O)c1c(F)cccc1F)Nc1ccc(SC(F)(F)C(F)F)c(Cl)c1Cl | 100% | 100% | 100% | 100%
26 | O=C(NC(=O)c1c(F)cccc1F)Nc1cc(Cl)c([S+]([O-])C(F)(F)C(F)Cl)cc1Cl (stereo not drawn) | 100% | 100% | 100% | 100%
27 | O=C(NC(=O)c1c(F)cccc1F)Nc1ccc(S(=O)(=O)C(F)(F)C(F)F)c(Cl)c1Cl | 100% | 95% | 100% | 100%
28 | O=C(NC(=O)c1c(F)cccc1F)Nc1ccc(S(=O)(=O)C(F)(F)C(F)Cl)cc1F (stereo not drawn) | 100% | 100% | 100% | 100%
29 | O=C(NC(=O)c1c(F)cccc1F)Nc1ccc(SC(F)(F)C(F)F)cc1 | 5% | 100% | 20% | 55%
30 | Cc1cc(SC(F)(F)C(F)Cl)c(C)cc1NC(=O)NC(=O)c1c(F)cccc1F (stereo not drawn) | 95% | 100% | 100% | 100%
31 | O=C(NC(=O)c1c(F)cccc1F)Nc1ccc(S(=O)(=O)C(F)(F)C(F)Cl)c(Cl)c1Cl (stereo not drawn) | 100% | 100% | 100% | 100%
32 | O=C(NC(=O)c1c(F)cccc1F)Nc1ccc(S(=O)(=O)C(F)(F)C(F)Br)cc1Br (stereo not drawn) | 85% | 20% | 95% | 100%
33 | O=C(NC(=O)c1c(F)cccc1F)Nc1ccc(SC(F)(F)C(F)Cl)c(Cl)c1Cl (stereo not drawn) | 100% | 95% | 100% | 100%
34 | Cc1cc(NC(=O)NC(=O)c2c(F)cccc2F)ccc1SC(F)(F)C(F)F | 0% | 100% | 100% | 100%
35 | O=C(NC(=O)c1c(F)cccc1F)Nc1ccc(SC(F)(F)C(F)F)cc1Cl | 100% | 100% | 100% | 100%
36 | Cc1cc(NC(=O)NC(=O)c2c(F)cccc2F)ccc1S(=O)(=O)C(F)(F)C(F)F | 25% | 100% | 60% | 70%
37 | O=C(NC(=O)c1c(F)cccc1F)Nc1ccc([S+]([O-])C(F)(F)C(F)Cl)c(Cl)c1Cl (stereo not drawn) | 100% | 100% | 100% | 100%
38 | O=C(NC(=O)c1c(F)cccc1F)Nc1ccc([S+]([O-])C(F)(F)C(F)Cl)cc1F (stereo not drawn) | 100% | 100% | 100% | 100%
39 | Cc1cc([S+]([O-])C(F)(F)C(F)Cl)ccc1NC(=O)NC(=O)c1c(F)cccc1F (stereo not drawn) | 100% | 100% | 100% | 100%
40 | O=C(NC(=O)c1c(F)cccc1F)Nc1ccc(S(=O)(=O)C(F)(F)C(F)F)cc1 |  | 90% | 0% | 0%
41 | Cc1cc(S(=O)(=O)C(F)(F)C(F)F)ccc1NC(=O)NC(=O)c1c(F)cccc1F | 100% | 100% | 100% | 100%
42 | O=C(NC(=O)c1c(F)cccc1F)Nc1cc(Cl)c(S(=O)(=O)C(F)(F)C(F)F)cc1Cl | 90% | 95% | 95% | 100%
43 | Cc1c(NC(=O)NC(=O)c2c(F)cccc2F)ccc(S(=O)(=O)C(F)(F)C(F)Cl)c1C (stereo not drawn) | 100% | 100% | 100% | 100%
44 | Cc1c(NC(=O)NC(=O)c2c(F)cccc2F)ccc(SC(F)(F)C(F)F)c1C | 100% | 100% | 100% | 100%
45 | O=C(NC(=O)c1c(F)cccc1F)Nc1ccc(S(=O)(=O)C(F)(F)C(F)Cl)cc1 (stereo not drawn) |  |  | 0% | 0%
46 | O=C(NC(=O)c1c(F)cccc1F)Nc1ccc(SC(F)(F)C(F)Cl)cc1 (stereo not drawn) | 40% | 100% | 45% | 65%
47 | O=C(NC(=O)c1c(F)cccc1F)Nc1cc(Cl)c([S+]([O-])C(F)(F)C(F)F)cc1Cl (stereo not drawn) | 75% | 100% | 100% | 100%
48 | O=C(NC(=O)c1c(F)cccc1F)Nc1ccc([S+]([O-])C(F)(F)C(F)Cl)cc1Cl (stereo not drawn) | 95% | 95% | 90% | 100%
